How the values were obtained:
whole blood = test: Human whole blood loop assay: ACT kaolin time and prothrombin/INR time (i-STAT cartridges); conditions: for Activated clotting time (ACT) / Prothrombin time (PT) / international normalized ration (INR): dextran sulfate 0.2 mg/ml, no CAR-T cells
Procedure: The objective of this Example was to investigate dextran sulfate in a human whole blood loop assay in combination with CAR-T cells. Cellular activation and viability and blood status was assessed after incubation in the human whole loop system with dextran sulfate with and without CAR-T cells.
(§1) Blood from healthy donors was taken in an open system and immediately mixed with test compounds (CD19-CAR T cells and dextran sulfate (Tikomed AB, Sweden, WO 2016/076780, referred to as IBsolvMIR in the figures). Autologous setting included CAR-T cells generated from the same donor that donated whole blood. In allogeneic setting, blood and CAR-T cells were not matched (from different donors). All materials in direct contact with whole blood were surface heparinized in accordance with the manufacturers protocol (Corline, Sweden). Whole blood (2 ml) was added to PVC-tubing, which, with a surface heparinized metal connector, formed a loop. The dextran sulfate (0.2 g/L) and CAR-T cells (0.5-5×10^6 cells) were added according to Table 1, and the loops were set to rotate on a wheel at 37° C. Blood aliquots were sampled, andeEthylenediaminetetraacetic acid (EDTA) was added to a final concentration of 10 mM to stop reactions at a given time-point. The automated hematology analyzer XP-300 or XN-350 (Sysmex) was used to assess blood cell count at different time points, while i-STAT cartridges (Abbott) were used to measure ACT kaolin time and prothrombin/INR time measurements.

C3a = test: Complement analysis (C3a) ELISA on plasma from whole blood loops; parameters: species or system human; conditions: data not shown
Procedure: The plasma samples were kept on ice, and plasma was collected by centrifugation at 2000×g at 4° C. for 20 minutes. The plasma was stored at −70° C. until the time of analysis. Complement analysis (C3a) was performed on plasma collected at various time points after assay start with ELISA kits from RayBiotech according to the manufacturers instructions. For experiments involving flow cytometry, blood samples were mixed with EDTA (final concentration of 10 mM), followed by the Fc block (BD Biosciences) and antibody master mix containing anti-human fluorochrome-labeled antibodies for surface staining (CD3, CD4, CD8, CD20, CD56, CD16, CD66b, CD14, BioLegend), including activation markers (CD107a, CD69, CD11b, Biolegend). Antibody master mix was incubated with whole blood for 30 min at 4° C., washed with PBS and analyzed using Cytoflex (Beckman Coulter).

[1] = tested on: T cell population (CD3+, CD4+, CD8+ T cells); test: Whole blood loop assay: flow cytometry of blood donor T cells (activation markers, viability); format: cell-based, human; conditions: groups with and without dextran sulfate; 60 min; FIGS. 3A to 3I
From the text: as §1, with “The automated hematology analyzer XP-300 or XN-350 (Sysmex) was used to assess blood cell count at different time points, while i-STAT cartridges (Abbott) were used to measure ACT kaolin time and prothrombin/INR time measurements.” left out
(§2) The plasma samples were kept on ice, and plasma was collected by centrifugation at 2000×g at 4° C. for 20 minutes. […] Antibody master mix was incubated with whole blood for 30 min at 4° C., washed with PBS and analyzed using Cytoflex (Beckman Coulter).

CAR-T cell population = test: Whole blood loop assay: flow cytometry of CAR-T cell population (CAR marker, CD69, CD107a, viability); format: cell-based, human
Procedure: Peripheral blood mononuclear cells (PBMCs) were isolated from healthy donors using Lymphoprep (Progen), stored in −70° C. in freezing medium (10% dimethyl sulfoxide (DMSO), 90% fetal calf serum (FCS)) and cultured in RPMI-1640 supplemented with 10% FCS and 1% penicillin/streptomycin. The PBMCs were activated with 1 μg/ml OKT-3 (Biolegend) and 200 IU/ml IL-2 (Roche) for 1 day to selectively stimulate T cells. Retronectin plates (Takara) were prepare in advance (7 μg per well, overnight at 4° C.) and incubated twice with 500 μl concentrated CD19-CAR-encoding retrovirus (2G) or Mock retrovirus, previously described in Karlsson et al., Evaluation of Intracellular Signaling Downstream Chimeric Antigen Receptors, PLOS ONE 2015, 10(12):e0144787, for 30 min at 37° C. Activated cells were transduced with 3 ml concentrated CD19-CAR-encoding retrovirus or Mock retorvirus for 2 days at 37° C. in the presence of retronectin-coated plates and 100 IU IL-2. Cells were cultured with 100 IU/ml IL-2 and expanded for 2 weeks before analysis. For analysis of CD19-CAR expression, cells were stained with 0.5 μl of anti-CAR-Dylight649 (Jackson ImmunoResearch), washed with phosphate-buffered saline (PBS) and followed by surface labeling (CD3, CD8, CD4, TF). Flow cytometry analysis was performed using Cytoflex (Beckman Coulter). Cell count and cell viability was determined using trypan blue (T-20 Counter, Bio-Rad).
as §1, with “The automated hematology analyzer XP-300 or XN-350 (Sysmex) was used to assess blood cell count at different time points, while i-STAT cartridges (Abbott) were used to measure ACT kaolin time and prothrombin/INR time measurements.” left out
as §2

[2] = tested on: B cell population (CD19+); test: Whole blood loop assay: flow cytometry of B cells (count, CD69, CD107a); format: cell-based, human
From the text: as §1, with “The automated hematology analyzer XP-300 or XN-350 (Sysmex) was used to assess blood cell count at different time points, while i-STAT cartridges (Abbott) were used to measure ACT kaolin time and prothrombin/INR time measurements.” left out
as §2

monocyte population = test: Whole blood loop assay: CD11b on monocytes by flow cytometry; format: cell-based, human; conditions: addition of dextran sulfate to loops; FIG. 9A
From the text: as §1, with “The automated hematology analyzer XP-300 or XN-350 (Sysmex) was used to assess blood cell count at different time points, while i-STAT cartridges (Abbott) were used to measure ACT kaolin time and prothrombin/INR time measurements.” left out
as §2

granulocyte population = test: Whole blood loop assay: CD11b on granulocytes by flow cytometry; format: cell-based, human; conditions: addition of dextran sulfate to loops; FIG. 9B
From the text: as §1, with “The automated hematology analyzer XP-300 or XN-350 (Sysmex) was used to assess blood cell count at different time points, while i-STAT cartridges (Abbott) were used to measure ACT kaolin time and prothrombin/INR time measurements.” left out
as §2

[3] = allogenic donor, time point 60 min
[4] = autologous donor, time point 10 min
[5] = autologous donor, time point 60 min

dextran sulfate
coagulation measurements (ACT, PTT, INR) (whole blood; Table 2 and Table 3, autologous and allogenic donor): rise in all coagulation measurements | Activated clotting time (ACT) (whole blood; [3]): 356 s | Prothrombin time (PT) (whole blood; [3]): 30.7 s | international normalized ration (INR) (whole blood; [3]): 2.7 | Activated clotting time (ACT) (whole blood; [4]): 485 s | Prothrombin time (PT) (whole blood; [4]): 16.5 s | international normalized ration (INR) (whole blood; [4]): 1.4 | Prothrombin time (PT) (whole blood; [5]): 17.9 s | international normalized ration (INR) (whole blood; [5]): 1.5 | C3a levels (C3a; in co-administration with CAR-T cells): decreased levels of C3a | C3a levels (C3a; substance added alone, both donors): decreased levels of C3a | viability and activation of T cell population (blood donors CD3+, CD4+, CD8+ T cells) [1]: similar | percentage of cells positive for the CAR-T cell specific marker in the T cell population (CAR-T cell population; allogenic donor, FIG. 4A): increased | viability of the CAR-T cells (CAR-T cell population; autologous donor, without or with dextran sulfate, FIG. 5C): ~60% | proportion of CD3+ CAR-T cells and CD8+ CAR-T cells, autologous versus allogenic groups (CAR-T cell population; when dextran sulfate was added): more similar | levels of activation markers (CD69, CD107a) in the allogenic CAR-T cell groups (CAR-T cell population; with dextran sulfate, compared with autologous CAR-T cell groups, FIGS. 5A, 5B and 6): more similar to the levels of activation markers in the autologous CAR-T cell groups | impact on CAR functionality ([2]; from B cell count and activation pattern): did not have any negative impact | B cell count and activation pattern ([2]; samples with or without dextran sulfate): similar | expression of activation marker CD11 b on monocytes (monocyte population): decreased | expression of activation marker CD11 b on granulocytes (granulocyte population): decreased

From patent publication US20220267728A1, “ALLOGENIC CAR-T CELL THERAPY” (TX MEDIC AB, priority 2019, published 2022)
